Results as given in US10227344B2, “CK2 inhibitors, compositions and methods thereof” (Polaris Pharmaceuticals, Inc., priority 2016, dated 2019).

Columns and labels:
Format in all cases: cell-based
[1] = test system: PC3; experiment: Cancer cell panel, cell viability (resazurin): Prostate, PC3; settings: Homo sapiens, PC-3, 72 hours, single agent, read-out: Example 3 IC50
Method: (§1) Cells were plated in 96-well plates and treated for 72 hours with a serially diluted CK2 inhibitor or anti-cancer drug or their combination. The suspension cell lines were treated right after plating, while the adherent cells were allowed to attach overnight prior to the start of the treatment.
(§2) Cell viability was determined by adding resazurin to cell cultures and measuring fluorescence with a plate reader. Relative cell viability was calculated by dividing the cell viability signal from a test sample by that of a non-treated control. […] Bliss Independence and Highest Single Agent models were used to determine if there is synergy, additivity or antagonism between the CK2 inhibitor and an anti-cancer drug.

[2] = test system: LnCap; experiment: Cancer cell panel, cell viability (resazurin): Prostate, LnCap; settings: Homo sapiens, 72 hours, single agent, read-out: Example 3 IC50
[3] = test system: SKOV-3; experiment: Cancer cell panel, cell viability (resazurin): Ovarian, SKOV-3; settings: Homo sapiens, SK-OV-3; SKOV-3 (Ovarian), 72 hours, single agent; read-out: Example 3 IC50
[4] = test system: OVCAR-3; experiment: Cancer cell panel, cell viability (resazurin): Ovarian, OVCAR-3; settings: Homo sapiens; OVCAR-3 (Ovarian), 72 hours, single agent; read-out: Example 3 IC50
[5] = test system: A2780; experiment: Cancer cell panel, cell viability (resazurin): Ovarian, A2780; settings: Homo sapiens, 72 hours, single agent, read-out: Example 3 IC50
Method: as §1, §2

[6] = test system: Mia-Paca-2; experiment: Cancer cell panel, cell viability (resazurin): Pancreatic, Mia-Paca-2; settings: Homo sapiens; Mia-Paca-2 (Pancreatic), 72 hours, single agent; read-out: Example 3 IC50
Method: as §1, §2

[7] = test system: Panc-1; experiment: Cancer cell panel, cell viability (resazurin): Pancreatic, Panc-1; settings: Homo sapiens; Panc-1 (Pancreatic), 72 hours, single agent; read-out: Example 3 IC50
Method: as §1, §2

[8] = test system: BxPC3; experiment: Cancer cell panel, cell viability (resazurin): Pancreatic, BxPC3; settings: Homo sapiens, BXPC-3, 72 hours, single agent, read-out: Example 3 IC50
[9] = test system: HCT116; experiment: Cancer cell panel, cell viability (resazurin): Colon, HCT116; settings: Homo sapiens, HCT-116, 72 hours, single agent, read-out: Example 3 IC50
[10] = test system: HT29; experiment: Cancer cell panel, cell viability (resazurin): Colon, HT29; settings: Homo sapiens, HT-29, 72 hours, single agent, read-out: Example 3 IC50
Method: as §1, §2

[11] = test system: Colo205; experiment: Cancer cell panel, cell viability (resazurin): Colon, Colo205; settings: Homo sapiens, COLO 205, 72 hours, single agent, read-out: Example 3 IC50
Method: as §1, §2

[12] = test system: LoVo; experiment: Cancer cell panel, cell viability (resazurin): Colon, LoVo; settings: Homo sapiens, 72 hours, single agent, read-out: Example 3 IC50
[13] = test system: DLD-1; experiment: Cancer cell panel, cell viability (resazurin): Colon, DLD-1; settings: Homo sapiens; DLD-1 (Colon), 72 hours, single agent; read-out: Example 3 IC50
[14] = test system: A549; experiment: Cancer cell panel, cell viability (resazurin): NSCLC, A549; settings: Homo sapiens, 72 hours, single agent, read-out: Example 3 IC50
Method: as §1, §2

[15] = test system: H1975; experiment: Cancer cell panel, cell viability (resazurin): NSCLC, H1975; settings: Homo sapiens, NCI-H1975, 72 hours, single agent, read-out: Example 3 IC50
[16] = test system: H23; experiment: Cancer cell panel, cell viability (resazurin): NSCLC, H23; settings: Homo sapiens, NCI-H23, 72 hours, single agent, read-out: Example 3 IC50
Method: as §1, §2

[17] = test system: SkBr-3; experiment: Cancer cell panel, cell viability (resazurin): Breast, SkBr-3; settings: Homo sapiens, SK-BR-3; SkBr-3 (Breast), 72 hours, single agent; read-out: Example 3 IC50
[18] = test system: MDA-MB-231; experiment: Cancer cell panel, cell viability (resazurin): Breast, MDA-MB-231; settings: Homo sapiens; MDA-MB-231 (Breast), 72 hours, single agent; read-out: Example 3 IC50
[19] = test system: BT-474; experiment: Cancer cell panel, cell viability (resazurin): Breast, BT-474; settings: Homo sapiens; BT-474 (Breast), 72 hours, single agent; read-out: Example 3 IC50
Method: as §1, §2

[20] = test system: ZR-75-1; experiment: Cancer cell panel, cell viability (resazurin): Breast, ZR-75-1; settings: Homo sapiens; ZR-75-1 (Breast), 72 hours, single agent; read-out: Example 3 IC50
Method: as §1, §2

[21] = test system: T47D; experiment: Cancer cell panel, cell viability (resazurin): Breast, T47D; settings: Homo sapiens, 72 hours, single agent, read-out: Example 3 IC50
[22] = test system: MCF7; experiment: Cancer cell panel, cell viability (resazurin): Breast, MCF7; settings: Homo sapiens, 72 hours, single agent, read-out: Example 3 IC50
Method: as §1, §2

[23] = test system: 786-O; experiment: Cancer cell panel, cell viability (resazurin): Renal, 786-O; settings: Homo sapiens, 786-0; 786-O (Renal), 72 hours, single agent; read-out: Example 3 IC50
Method: as §1, §2

[24] = test system: ACHN; experiment: Cancer cell panel, cell viability (resazurin): Renal, ACHN; settings: Homo sapiens, 72 hours, single agent, read-out: Example 3 IC50
[25] = test system: Caki-1; experiment: Cancer cell panel, cell viability (resazurin): Renal, Caki-1; settings: Homo sapiens; Caki-1 (Renal), 72 hours, single agent; read-out: Example 3 IC50
[26] = test system: Caki-2; experiment: Cancer cell panel, cell viability (resazurin): Renal, Caki-2; settings: Homo sapiens; Caki-2 (Renal), 72 hours, single agent; read-out: Example 3 IC50
Method: as §1, §2

[27] = test system: SK-MEL-3; experiment: Cancer cell panel, cell viability (resazurin): Melanoma, SK-MEL-3; settings: Homo sapiens, SK-MEL3; SK-MEL-3 (Melanoma), 72 hours, single agent; read-out: Example 3 IC50
Method: as §1, §2

[28] = test system: SK-MEL-24; experiment: Cancer cell panel, cell viability (resazurin): Melanoma, SK-MEL-24; settings: Homo sapiens; SK-MEL-24 (Melanoma), 72 hours, single agent; read-out: Example 3 IC50
[29] = test system: WM-115; experiment: Cancer cell panel, cell viability (resazurin): Melanoma, WM-115; settings: Homo sapiens; WM-115 (Melanoma), 72 hours, single agent; read-out: Example 3 IC50
[30] = test system: MeWO; experiment: Cancer cell panel, cell viability (resazurin): Melanoma, MeWO; settings: Homo sapiens, 72 hours, single agent, read-out: Example 3 IC50
Method: as §1, §2

[31] = test system: U266; experiment: Cancer cell panel, cell viability (resazurin): multiple myeloma, U266; settings: Homo sapiens, U-266, 72 hours, single agent, read-out: Example 3 IC50
[32] = test system: RPMI8226; experiment: Cancer cell panel, cell viability (resazurin): multiple myeloma, RPMI8226; settings: Homo sapiens, RPMI-8226, 72 hours, single agent, read-out: Example 3 IC50
[33] = test system: Raji; experiment: Cancer cell panel, cell viability (resazurin): Burkitt's Lymphoma, Raji; settings: Homo sapiens, 72 hours, single agent, read-out: Example 3 IC50
[34] = test system: Daudi; experiment: Cancer cell panel, cell viability (resazurin): Burkitt's Lymphoma, Daudi; settings: Homo sapiens, 72 hours, single agent, read-out: Example 3 IC50
[35] = test system: K562; experiment: Cancer cell panel, cell viability (resazurin): Leukemia, K562; settings: Homo sapiens, 72 hours, single agent, read-out: Example 3 IC50
[36] = test system: HL60; experiment: Cancer cell panel, cell viability (resazurin): Leukemia, HL60; settings: Homo sapiens, HL-60, 72 hours, single agent, read-out: Example 3 IC50
[37] = test system: EOL-1; experiment: Cancer cell panel, cell viability (resazurin): Leukemia, EOL-1; settings: Homo sapiens, EOL1; EOL-1 (Leukemia), 72 hours, single agent; read-out: Example 3 IC50
[38] = test system: MOLT4; experiment: Cancer cell panel, cell viability (resazurin): Leukemia, MOLT4; settings: Homo sapiens, MOLT-4, 72 hours, single agent, read-out: Example 3 IC50

C[S@+]([O-])Cc1cc(Nc2cc(NC3CC3)n3ncc(C#N)c3n2)ccc1Cl [Example 3, (S)(+)-5-((4-Chloro-3-((methylsulfinyl)methyl)phenyl)amino)-7-(cyclopropylamino)pyrazolo[1,5-a]pyrimidine-3-carbonitrile]
IC50 [1]: 112 nM
IC50 [2]: 420 nM
IC50 [3]: 1380 nM
IC50 [4]: 42 nM
IC50 [5]: 527 nM
IC50 [6]: 253 nM
IC50 [7]: 539 nM
IC50 [8]: 3600 nM
IC50 [9]: 356 nM
IC50 [10]: 197 nM
IC50 [11]: 1120 nM
IC50 [12]: 170 nM
IC50 [13]: 572 nM
IC50 [14]: 1670 nM
IC50 [15]: 387 nM
IC50 [16]: 575 nM
IC50 [17]: 228 nM
IC50 [18]: 567 nM
IC50 [19]: 338 nM
IC50 [20]: 323 nM
IC50 [21]: 861 nM
IC50 [22]: 1820 nM
IC50 [23]: 2620 nM
IC50 [24]: 409 nM
IC50 [25]: 171 nM
IC50 [26]: 669 nM
IC50 [27]: 429 nM
IC50 [28]: 1410 nM
IC50 [29]: 286 nM
IC50 [30]: 263 nM
IC50 [31]: > 10000 nM
IC50 [32]: 233 nM
IC50 [33]: 249 nM
IC50 [34]: 217 nM
IC50 [35]: 463 nM
IC50 [36]: 261 nM
IC50 [37]: 138 nM
IC50 [38]: 420 nM
